Laboratory results published in patent US20080207952A1, “NOVEL THERAPEUTIC APPLICATIONS OF NATURAL POLY ISOPRENYLATED BENZOPHENONE DERIVATIVES AS DRUGS/MEDICAMENTS” (priority 2003, published 2008).
Like-named read-outs stand apart in the source and are kept apart here.

Assays:
[1] = tested on: Propionibacterium acnes ATCC 11827; assay: Anti-microbial activity against Propionibacterium acnes (disk zone of inhibition on Reinforced Clostridial Agar); format: cell-based; details: 48 hours at 37° C., anaerobic
Protocol: Propionibacterium acnes was cultured in an anaerobic chamber (Coy Laboratory, USA with an automatic lock purge system). The growth standardization was ensured by culturing the organism in different culture media. The anaerobic conditions were ensured initially with Nitrogen gas and then a mixture of Nitrogen, Hydrogen and Carbon dioxide in a ratio of 80:10:10. A two gas tank arrangement was made wherein only Nitrogen was connected to the transfer chamber and the mixed gas to the main chamber using Gassing Manifold (Hrishi Biotech. Pune, India). The anaerobic media were prepared by heating the media while passing the mixture of gases Nitrogen and Carbon dioxide in a ratio of 4:1 simultaneously. A redox indicator reazurin=0.001% was added to the media. The indicator is colorless in an anaerobic environ and turns blue otherwise. It was dispensed to 30 ml, 20 ml and 10 ml vials sealed with rubber and aluminium clamps and sterilized by autoclaving at 121° C. for 15 minutes.
Propionibacterium acnes ATCC 11827 was sub cultured from broth cultures into vials containing fresh medium. The cultures were then incubated for 48 hours at 37° C. The optical density of the culture at 625 nm was maintained between 0.64 and 0.80 which corresponded to approximately 12×10^6 cells/ml (4.0 MC Mc Farland standard). The anti-microbial susceptibility testing was carried on Reinforced Clostridial Agar (RCA). 0.3 ml of P. acnes culture was inoculated into the culture plates. Culture plates were impregnated with disks comprising varying concentrations of the test naturally occuring poly isoprenylated benzophenone derivatives. The plates were incubated in anaerobic chambers at 37° C. for 48 hours. The test naturally occuring poly isoprenylated benzophenone derivatives were prepared with DMSO as vehicle. The controls included DMSO and Clindac A (Clindamycin Phosphate Gel 1% w/w). The zone of inhibition was measured and expressed in mm. (Table I)

[2] = target: T1, Elastase from Pig pancreas (Sus scrofa, UniProt P00772); assay: Anti-elastase activity (EnzChek elastase assay kit); format: biochemical; details: read after 30 minutes
T1 construct: purchased; host or cells: pig pancreas
T1 sequence (P00772 27-266): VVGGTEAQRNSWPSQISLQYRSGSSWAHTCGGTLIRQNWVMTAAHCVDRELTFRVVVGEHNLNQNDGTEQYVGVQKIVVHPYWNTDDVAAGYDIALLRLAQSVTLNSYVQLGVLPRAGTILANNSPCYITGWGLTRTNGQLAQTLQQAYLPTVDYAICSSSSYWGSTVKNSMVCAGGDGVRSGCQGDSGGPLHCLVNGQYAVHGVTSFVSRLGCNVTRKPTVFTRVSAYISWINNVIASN
Protocol: Principle: The assays were done using the EnzChek elastase assay kit. The substrate is DQ elastin soluble bovine neck ligament. DQ elastin is labeled with BODIPY FL dye. The non-fluorescent substrate can be digested by elastase to yield highly fluorescent fragments and in the presence of inhibitor, the fluorescence intensity is quenched. The fluorescence intensity was measured in a microplate reader ([…].) Methodology: Varying concentrations of the test material were pre-incubated for 10 minutes with the substrate DQ […]. Elastase from Pig pancreas enzyme was then added and the fluorescence intensity was measured after 30 minutes (Em: 485 nm and Ex: 520 nm.).

[3] = target: T2, COX-1 (Ovis aries, UniProt P05979); assay: COX inhibitor screening assay (Cayman, EIA), COX-1; format: biochemical; details: substrate Arachidonate, prostaglandins by EIA
T2 construct: purchased Cayman chemical company 560101
T2 sequence (P05979 25-600): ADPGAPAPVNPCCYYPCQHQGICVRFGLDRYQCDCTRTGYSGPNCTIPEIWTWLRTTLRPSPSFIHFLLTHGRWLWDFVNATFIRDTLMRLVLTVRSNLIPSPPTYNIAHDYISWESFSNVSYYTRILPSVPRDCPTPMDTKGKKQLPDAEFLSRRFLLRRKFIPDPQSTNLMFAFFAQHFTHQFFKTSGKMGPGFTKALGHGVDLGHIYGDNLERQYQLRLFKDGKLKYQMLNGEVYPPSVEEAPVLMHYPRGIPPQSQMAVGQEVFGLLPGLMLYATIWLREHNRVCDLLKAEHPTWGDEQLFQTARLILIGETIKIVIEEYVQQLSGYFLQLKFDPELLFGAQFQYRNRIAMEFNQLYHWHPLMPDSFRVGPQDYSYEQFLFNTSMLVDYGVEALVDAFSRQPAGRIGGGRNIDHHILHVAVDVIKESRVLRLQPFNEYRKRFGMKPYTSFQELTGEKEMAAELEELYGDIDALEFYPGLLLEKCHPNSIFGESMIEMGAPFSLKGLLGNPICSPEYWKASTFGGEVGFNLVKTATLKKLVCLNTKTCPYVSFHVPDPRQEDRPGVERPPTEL
Protocol: Principle: The COX inhibitor screening Assay was performed using the Cox inhibitory kit from Cayman chemical company (Catalog No. 560101) by Enzyme Immuno Assay method. Methodology: Enzyme (COX-1) is allowed to react on substrate Arachidonate in presence & absence of the inhibitor. The amount of prostaglandins (PGF2 ? ) produced by stannous chloride reduction of COX-derived PGFH2 are estimated by EIA (Cayman) using a broadly specific antibody that binds to all major prostaglandin compounds. The decrease in PGs released in presence of inhibitor is directly proportional to inhibition.

[4] = target: T3, COX 2 (Ovis aries, UniProt P79208); assay: COX inhibitor screening assay (Cayman, EIA), COX-2; format: biochemical; details: prostaglandins by EIA
T3 construct: purchased Cayman chemical company 560101
T3 sequence (P79208 17-603): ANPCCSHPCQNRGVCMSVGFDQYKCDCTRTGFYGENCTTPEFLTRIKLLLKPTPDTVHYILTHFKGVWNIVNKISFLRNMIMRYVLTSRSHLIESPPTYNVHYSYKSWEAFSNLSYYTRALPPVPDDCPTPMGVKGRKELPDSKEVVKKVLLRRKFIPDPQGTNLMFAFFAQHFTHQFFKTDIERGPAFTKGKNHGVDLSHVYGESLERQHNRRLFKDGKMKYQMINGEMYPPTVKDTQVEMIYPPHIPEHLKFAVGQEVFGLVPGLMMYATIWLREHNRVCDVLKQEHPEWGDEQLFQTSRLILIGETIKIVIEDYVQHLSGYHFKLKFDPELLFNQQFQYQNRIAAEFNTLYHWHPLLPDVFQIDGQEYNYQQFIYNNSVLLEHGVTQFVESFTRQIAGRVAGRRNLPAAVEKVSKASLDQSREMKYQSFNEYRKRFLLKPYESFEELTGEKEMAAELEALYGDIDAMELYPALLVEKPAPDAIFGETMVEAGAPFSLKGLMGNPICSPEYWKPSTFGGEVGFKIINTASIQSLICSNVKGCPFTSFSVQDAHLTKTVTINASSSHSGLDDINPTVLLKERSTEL

IC50 ([2]; Table III, read-out: IC50 (anti-elastase, sigmoidal dose response curve) (converted))	IC50 ([2]; read-out: IC50 (anti-elastase) (converted))	IC50 [3]	IC50 [4]	Structure (SMILES)	Zone of Inhibition ([1]; Conc. of the sample 0.01%)	Zone of Inhibition ([1]; Conc. of the sample 0.03%)	Zone of Inhibition ([1]; Conc. of the sample 0.05%)	Zone of Inhibition ([1]; Conc. of the sample 0.1%)	Zone of Inhibition ([1]; Conc. of the sample 0.3%)	Zone of Inhibition ([1]; Conc. of the sample 0.5%)	Zone of Inhibition ([1]; Conc. of the sample 1.0%)	Zone of Inhibition ([1]; Conc. of the sample 2.0%)	Zone of Inhibition ([1]; Conc. of the sample 5.0%)
496 µM	498 µM	144 µM	36.5 µM	C=C(C)[C@@H](CC=C(C)C)C[C@@]12C[C@@H](CC=C(C)C)C(C)(C)[C@@](CC=C(C)C)(C(=O)C(C(=O)c3ccc(O)c(O)c3)=C1O)C2=O [Garcinol]	7 mm	8 mm	10 mm	11 mm	14 mm	16 mm	18 mm	19 mm	20 mm
–	–	–	–	CC(C)=CC[C@H]1C[C@@]23C[C@@H](CC=C(C)C)C(C)(C)[C@@](CC=C(C)C)(C(=O)C(C(=O)c4ccc(O)c(O)c4)=C2OC1(C)C)C3=O [Cambogin 90%, Cambogin]	–	–	–	–	–	0 mm	0 mm	0 mm	0 mm
